For one experiment, the system named is E. coli Tol C. Kind of experiment: Antibacterial assay (Test A), microtitration MIC, Gram negative. Format: cell-based. The note with it: Escherichia coli, read-out: Minimum Inhibitory Concentrations E. coli Tol C. How it is done: (§1) The compounds of the present invention were tested against an assortment of Gram-negative and Gram-positive organisms using standard microtitration techniques (Cohen et. al., Antimicrob., 1985;28:766;Heifetz, et. al., Antimicrob., 1974;6: 124).

Another experiment has as its system H. influenzae HI3542. Described as above. Format: cell-based. Particulars: Haemophilus influenzae; Gram Negative Bacteria; strain HI3542; read-out: Minimum Inhibitory Concentrations H. influenzae HI3542. The protocol:
as §1

For another experiment, the system named is M. catarrhalis BC3534. The description is as above. The note with it: Moraxella catarrhalis; Gram Negative Bacteria; strain BC3534; read-out: Minimum Inhibitory Concentrations M. catarrhalis BC3534. The format is cell-based. How it is done: as §1
The test system of a further experiment is E. faecalis MGH-2. As to the kind of experiment: Antibacterial assay (Test A), microtitration MIC, Gram positive. Format: cell-based. Particulars: Enterococcus faecalis, MGH2; Gram Positive Bacteria; strain MGH-2; read-out: Minimum Inhibitory Concentrations E. faecalis MGH-2. How it is done:
as §1

In the next experiment the test system is S pyogenes C203. The experiment is described as above. The format is cell-based. Particulars: Gram Positive Bacteria; strain C203; read-out: Minimum Inhibitory Concentrations S pyogenes C203. How it is done: as §1
The test system of another experiment is S. aureus UC-76. Described as above. Format: cell-based. Particulars: Staphylococcus aureus, UC76; Gram Positive Bacteria; strain UC-76; read-out: Minimum Inhibitory Concentrations S. aureus UC-76. How it is done:
as §1

Experiment [1] concerns E. coli transcription and translation (TnT). The format is biochemical.

This is an account of results in US7304050B2, “Antibacterial agents” (Pfizer Inc., priority 2003, dated 2007).

Converted amounts (≈) assume the structure as drawn.

In the case of `COc1c(N2CCCc3cc(N4C[C@H](CNC(C)=O)OC4=O)ccc3C2)c(F)cc2c(=O)c(C(=O)O)cn(C3CC3)c12` (stereo in doubt) [Example 4, 7-{7-[5-(Acetylamino-methyl)-2-oxo-oxazolidin-3-yl]-1,3,4,5-tetrahydro-benzo[c]azepin-2-yl}-1-cyclopropyl-6-fluoro-8-methoxy-4-oxo-1,4-dihydro-quinoline-3-carboxylic Acid], the MIC was found to be 2 µg/mL (≈ 3.46 µM) in the experiment with E. coli Tol C; 0.06 µg/mL (≈ 0.104 µM) in the experiment on H. influenzae HI3542; 0.5 µg/mL (≈ 0.864 µM) in the experiment on M. catarrhalis BC3534; 1 µg/mL (≈ 1.73 µM) in the experiment with E. faecalis MGH-2; 1 µg/mL (≈ 1.73 µM) in the experiment on S pyogenes C203; 0.06 µg/mL (≈ 0.104 µM) with S. aureus UC-76. For the same compound, the “Inhibitory concentration in E. coli cell-free transcription/translation (TnT) assay” value in experiment [1] came to 4.0 µg/mL.
Regarding `CC(=O)NC[C@H]1CN(c2ccc3c(c2)CCN(c2nc4c(cc2F)c(=O)c(C(=O)O)cn4C2CC2)CC3)C(=O)O1` [Example 14, 7-{7-[5-(Acetylamino-methyl)-2-oxo-oxazolidin-3-yl]-1,2,4,5-tetrahydro-benzo[d]azepin-3-yl}-1-cyclopropyl-6-fluoro-4-oxo-1,4-dihydro-[1,8]naphthyridine-3-carboxylic Acid], the MIC in the experiment with E. coli Tol C was 16 µg/mL (≈ 29.1 µM); in the experiment with H. influenzae HI3542, 0.06 µg/mL (≈ 0.109 µM); in the experiment with M. catarrhalis BC3534 it was 2 µg/mL (≈ 3.64 µM); with E. faecalis MGH-2, 16 µg/mL (≈ 29.1 µM); with S pyogenes C203, 8 µg/mL (≈ 14.6 µM); in the experiment with S. aureus UC-76, 0.5 µg/mL (≈ 0.91 µM). The “Inhibitory concentration in E. coli cell-free transcription/translation (TnT) assay” value in experiment [1] was determined as 15 µg/mL.
Regarding `CC(=O)NC[C@H]1CN(c2ccc3c(c2)CCN(c2cc4c(cc2F)c(=O)c(C(=O)O)cn4C2CC2)CC3)C(=O)O1` [Example 9, 7-{7-[5-(Acetylamino-methyl)-2-oxo-oxazolidin-3-yl]-1,2,4,5-tetrahydro-benzo[d]azepin-3-yl}-1-cyclopropyl-6-fluoro-4-oxo-1,4-dihydro-quinoline-3-carboxylic Acid], the MIC is 4 µg/mL (≈ 7.29 µM) in the experiment on E. coli Tol C; 0.06 µg/mL (≈ 0.109 µM) with H. influenzae HI3542; 0.5 µg/mL (≈ 0.911 µM) in the experiment on M. catarrhalis BC3534; 8 µg/mL (≈ 14.6 µM) with E. faecalis MGH-2; 4 µg/mL (≈ 7.29 µM) in the experiment on S pyogenes C203; 0.13 µg/mL (≈ 0.237 µM) in the experiment on S. aureus UC-76. The “Inhibitory concentration in E. coli cell-free transcription/translation (TnT) assay” value in experiment [1] is 13.0 µg/mL.
Regarding `CC(=O)NC[C@H]1CN(c2ccc3c(c2)CCN(c2cc4c(c(C)c2F)c(=O)c(C(=O)O)cn4C2CC2)CC3)C(=O)O1` [Example 11, 7-{7-[5-(Acetylamino-methyl)-2-oxo-oxazolidin-3-yl]-1,2,4,5-tetrahydro-benzo[d]azepin-3-yl}-1-cyclopropyl-6-fluoro-5-methyl-4-oxo-1,4-dihydro-quinoline-3-carboxylic Acid], the MIC in the experiment with E. coli Tol C was 8 µg/mL (≈ 14.2 µM); in the experiment with H. influenzae HI3542, 0.06 µg/mL (≈ 0.107 µM); in the experiment on M. catarrhalis BC3534, 0.5 µg/mL (≈ 0.889 µM); in the experiment with E. faecalis MGH-2 it was 8 µg/mL (≈ 14.2 µM); in the experiment on S pyogenes C203, 16 µg/mL (≈ 28.4 µM); in the experiment on S. aureus UC-76 it was 0.06 µg/mL (≈ 0.107 µM). Moreover, the “Inhibitory concentration in E. coli cell-free transcription/translation (TnT) assay” value in experiment [1] was found to be 10 µg/mL.
Turning to `CC(=O)NC[C@H]1CN(c2ccc3c(c2)CCCN(c2c(F)cc4c(=O)c(C(=O)O)cn(C5CC5)c4c2Cl)C3)C(=O)O1` [Example 1, 7-{7-[5-(Acetylamino-methyl)-2-oxo-oxazolidin-3-yl]-1,3,4,5-tetrahydro-benzo[c]azepin-2-yl}-8-chloro-1-cyclopropyl-6-fluoro-4-oxo-1,4-dihydro-quinoline-3-carboxylic Acid], the MIC in the experiment on E. coli Tol C stood at 2 µg/mL (≈ 3.43 µM); in the experiment on H. influenzae HI3542, 0.06 µg/mL (≈ 0.103 µM); in the experiment on M. catarrhalis BC3534 it was 0.25 µg/mL (≈ 0.429 µM); with E. faecalis MGH-2 it was 1 µg/mL (≈ 1.72 µM); in the experiment with S pyogenes C203 it was 2 µg/mL (≈ 3.43 µM); in the experiment on S. aureus UC-76, 0.06 µg/mL (≈ 0.103 µM). In addition, the “Inhibitory concentration in E. coli cell-free transcription/translation (TnT) assay” value in experiment [1] worked out at 9.4 µg/mL.
